The numbers were not newly measured in patent US9827234B1, “Dose-dumping resistant controlled release dosage form” (OSMOTICA KERESKEDELMI ES SZOLGALTATO KFT, priority 2017, dated 2017), which cites them from elsewhere.

For series [1] the following is noted: 5 mg 3× daily, rapid release tablet.

What is called Cmax is the maximum level reached in the sampled fluid or tissue. For orientation: Tmax means the time at which the peak concentration occurs. As for `COC(=O)C(c1ccccc1)C1CCCCN1` (centres unmarked) [Methylphenidate, methyl 2-phenyl-2-(piperidin-2-yl)acetate], in series [1], the peak concentration (Cmax) is given as 4.2 ± 1.0 ng/mL, the “Tmax” value is reported as 6.5 ± 1.8 h and the “T½” value is 3.0 ± 0.5 h. Moreover, the “enhance the bioavailability of MPH” value (consuming alcohol (ethanol), Patrick et al. 2007) is “up to 40%”. Further, the plasma half-life (in vivo) is 2 to 3 h.
